Legend:
permanent focal ischemia [1] = experiment: Permanent focal ischemia with extensive infarction to sensorimotor cortex, 21 day neurological assessment; format: in vivo, Wistar rats; conditions: IV bolus 10 mg/kg at 90 min, 4 hours later, and 24 and 28 hours later (total 40 mg/kg); Day 21
Procedure: Wistar rats (n=5 per group) were subjected to focal ischemic stroke model that results in a extensive ischemia to the sensorimotor cortex substantially as described by Chen et al., (Stroke 17:738, 1986). […] Results were evaluated by Generalized Regression Model to determine statistical significance of the differences between slopes and to compare final neurological outcome after 21 days. […] Thus, compounds of the present invention provide long-term improvement of neurological deficits.

[2] = tested on: vascular permeability in the ischemic striatum; experiment: Post ischemic vascular permeability (Evans Blue extravasation); format: in vivo, Wistar rats; conditions: single IV bolus 30 min after onset of ischemia at 3, 10 and 30 mg/kg (dose of the value not stated), 24 hours reperfusion
Procedure: Post Ischemic Vascular Permeability Wistar rats were subjected to a 90 min occlusion of the middle cerebral artery (MCA) using an intraluminal suture approach as described by Longa et al., Stroke 1989, 20:84 followed by reperfusion for 24 hours. […] Two hours before sacrifice animals received an IV injection of 2% Evans Blue in saline. Brains were perfused with saline and the striatum dissected. Evans Blue was extracted and quantified by spectrofluorometer based on external standards. Vascular permeability in the ischemic striatum was reduced as evidenced by a 60% decrease of Evans Blue extravasation. Thus, compounds of the present invention reduce vascular permeability associated with ischemic injury.

[3] = tested on: Rat2 fibroblasts stably transformed with v-Src/Hu c-Src fusion gene; experiment: Anchorage Independent Src-transformed Fibroblast Proliferation Assay; format: cell-based; conditions: Rattus norvegicus, src dependent suspension growth, MTS, read-out: Src cells IC50
transient focal ischemia [4] = experiment: IP administration in rat model of transient focal ischemia (90 min MCA occlusion, 48 h reperfusion); format: in vivo, Wistar rats; conditions: for recovery from stroke-induced neurological deficits: 85 min after onset of ischemia, evaluated over 48 hours
Procedure: Wistar rats were subjected to a 90 min occlusion of the middle cerebral artery (MCA) using an intraluminal suture approach as described by Longa et al., Stroke 1989, 20:84 followed by reperfusion for 48 hours. […] Following reperfusion, the animals were evaluated over a 48 hour period for neurological function deficit and weight loss/gain. Infarct size was measured following sacrifice at 48 hours post MCA occlusion.

transient focal ischemia [5] = experiment: IV administration in rat model of transient focal ischemia (90 min MCA occlusion, 48 h reperfusion); format: in vivo, Wistar rats
Procedure: Following reperfusion, the animals were evaluated over a 48 hour period for neurological function deficit and weight loss/gain. Brain tissue infarction volume by were reduced by 22%, 53% and 42%, respectively. […] Thus, compounds of the present invention provide neuroprotection following focal ischemia.

transient focal ischemia [6] = experiment: Therapeutic window in transient focal ischemia model; format: in vivo, Wistar rats
Procedure: Therapeutic Window In this model of transient focal ischemia three studies were conducted to examine therapeutic window. Wistar rats were subjected to 90 minute occlusion of the MCA followed by reperfusion as described above. […] Volume of infarcted tissue was measured by histological staining.

permanent focal ischemia [7] = experiment: Permanent focal ischemia, model of extreme severity (intraluminal suture occlusion of internal carotid artery); format: in vivo, rat; conditions: relatively short outcome (28 hours)
Procedure: Permanent Focal Ischemia Example 1 was also evaluated in two rat models of permanent focal ischemia.

Src = target: T1, Src (Homo sapiens, UniProt P12931); experiment: Src Kinase Assay (ELISA or Delfia format, cdc2 substrate peptide); format: biochemical; conditions: read-out: Src enzyme IC50
T1 construct: purchased Upstate Biotechnologies, Lake Placid, N.Y
T1 sequence (P12931 whole entry): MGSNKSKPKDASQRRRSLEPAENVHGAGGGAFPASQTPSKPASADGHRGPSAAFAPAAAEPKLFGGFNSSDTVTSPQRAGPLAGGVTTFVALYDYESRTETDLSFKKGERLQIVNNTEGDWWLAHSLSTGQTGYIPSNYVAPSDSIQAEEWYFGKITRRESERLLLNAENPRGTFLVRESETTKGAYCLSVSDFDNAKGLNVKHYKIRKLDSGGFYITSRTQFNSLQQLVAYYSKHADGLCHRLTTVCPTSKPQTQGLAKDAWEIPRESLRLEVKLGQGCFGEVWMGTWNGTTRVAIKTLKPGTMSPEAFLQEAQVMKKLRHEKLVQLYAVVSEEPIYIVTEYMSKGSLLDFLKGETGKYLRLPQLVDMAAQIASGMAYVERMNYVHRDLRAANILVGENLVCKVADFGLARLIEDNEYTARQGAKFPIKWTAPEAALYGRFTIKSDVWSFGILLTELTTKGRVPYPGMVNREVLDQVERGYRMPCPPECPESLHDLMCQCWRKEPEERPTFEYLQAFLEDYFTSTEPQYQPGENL

With COc1cc(Nc2c(C#N)cnc3cc(OCCCN4CCN(C)CC4)c(OC)cc23)c(Cl)cc1Cl [Example 1, 4-[(2,4-Dichloro-5-methoxyphenyl)amino]-6-methoxy-7-[3-(4-methyl-1-piperazinyl)propoxy]-3-quinolinecarbonitrile] the “Behavioral Score (sensorimotor deficits) as compared to a control group” value (permanent focal ischemia [1]) was “statistically significant improvement”, the “decrease of Evans Blue extravasation in the ischemic striatum” value [2] was 60% and the IC50 [3] was 100 nM. The “recovery from stroke-induced neurological deficits” value (transient focal ischemia [4]; 5 mg/kg ip) was “significantly improved”, the “recovery from stroke-induced neurological deficits” value (transient focal ischemia [4]; 45 mg/kg ip) was “significantly improved” and the “volume of infarcted brain tissue, statistical significance of reduction” value (transient focal ischemia [4]; 45 mg/kg ip, 48 hours post MCA occlusion) was “statistical significance was achieved”. The body weight recovery (transient focal ischemia [4]; ip, over 48 hours) was “Improvement in body weight recovery was observed”, the “volume of infarcted brain tissue” value (transient focal ischemia [4]; most doses (1.5, 5, 15, or 45 mg/kg ip), 48 hours post MCA occlusion) was “Reductions in the volume of infarcted brain tissue were observed” and the “Mean Motor Deficit Score at 24 hrs” value (transient focal ischemia [5]; 3 mg/kg iv) was 3.83 ± 0.3. The “Mean Motor Deficit Score at 48 hrs” value (transient focal ischemia [5]; 3 mg/kg iv) was 3.25 ± 0.37, the “Brain tissue infarction volume reduced by” value (transient focal ischemia [5]; 3 mg/kg iv, 30 min after MCA occlusion) was 22% and the “Mean Motor Deficit Score at 24 hrs” value (transient focal ischemia [5]; 10 mg/kg iv) was 4.08 ± 0.08. For the same compound, the “Mean Motor Deficit Score at 48 hrs” value (transient focal ischemia [5]; 10 mg/kg iv) was 3.67 ± 0.22, the “Brain tissue infarction volume reduced by” value (transient focal ischemia [5]; 10 mg/kg iv, 30 min after MCA occlusion) was 53% and the “Mean Motor Deficit Score at 24 hrs” value (transient focal ischemia [5]; 30 mg/kg iv) was 4.08 ± 0.23. The “Mean Motor Deficit Score at 48 hrs” value (transient focal ischemia [5]; 30 mg/kg iv) was 3.67 ± 0.28, the “Brain tissue infarction volume reduced by” value (transient focal ischemia [5]; 30 mg/kg iv, 30 min after MCA occlusion) was 42% and the stroke-induced neurological deficits (transient focal ischemia [5]; all three doses (3, 10 and 30 mg/kg iv)) was “significantly reduced”. The Post-stroke weight loss (transient focal ischemia [5]; iv, 30 min after MCA occlusion) was “significantly reduced”, the “Brain tissue infarction (as a % of vehicle treated)” value (transient focal ischemia [6]; single 10 mg/kg dose administered between 30 min and 4 hours after the ischemic injury) was “statistically reduced” and the “protection from neurological deficits (as a percent of vehicle treated)” value (transient focal ischemia [6]; single 10 mg/kg dose administered up to 5 hours post-stroke) was “Statistically significant protection”. For the same compound, the “protection from ischemia-induced weight loss (as a % of vehicle treated)” value (transient focal ischemia [6]; single 10 mg/kg dose up to 5 hours post stroke) was “statistically significant protection” and the “effect in permanent focal ischemia model of extreme severity” value (permanent focal ischemia [7]) was “little or no effect”.

In the case of CCN1CCN(CCCOc2cc3ncc(C#N)c(Nc4cc(OC)c(Cl)cc4Cl)c3cc2OC)CC1 [Example 2, 4-[(2,4-Dichloro-5-methoxyphenyl)amino]-7-[3-(4-ethyl-1-piperazinyl)propoxy]-6-methoxy-3-quinolinecarbonitrile], the IC50 [3] is reported as 130 nM.

COc1cc(Nc2c(C#N)cnc3cc(OCCN4CCN(C)CC4)c(OC)cc23)c(Cl)cc1Cl [Example 3, 4-[(2,4-Dichloro-5-methoxyphenyl)amino]-6-methoxy-7-[2-(4-methyl-1-piperazinyl)ethoxy]-3-quinolinecarbonitrile] showed an IC50 (Src) of 4 nM, a melting point of 165 to 167 °C and an IC50 [3] of 380 nM.

Compound CCN1CCN(CCOc2cc3ncc(C#N)c(Nc4cc(OC)c(Cl)cc4Cl)c3cc2OC)CC1 [Example 4, 4-[(2,4-Dichloro-5-methoxyphenyl)amino]-7-[2-(4-ethyl-1-piperazinyl)ethoxy]-6-methoxy-3-quinolinecarbonitrile] has an IC50 (Src) of 3.6 nM, a melting point of 101 to 105 °C and an IC50 [3] of 600 nM.

CCN1CCC(COc2cc3ncc(C#N)c(Nc4cc(OC)c(Cl)cc4Cl)c3cc2OC)CC1 [Example 8, 4-[(2,4-Dichloro-5-methoxyphenyl)amino]-7-[(1-ethylpiperidin-4-yl)methoxy]-6-methoxyquinoline-3-carbonitrile] gave an IC50 (Src) of 2.1 nM, a melting point of 192 to 195 °C and an IC50 [3] of 170 nM.

CCOc1cc2c(Nc3cc(OC)c(Cl)cc3Cl)c(C#N)cnc2cc1OCCCN1CCN(C)CC1 [Example 9, 4-[(2,4-Dichloro-5-methoxyphenyl)amino]-6-ethoxy-7-[3-(4-methylpiperazin-1-yl)propoxy]quinoline-3-carbonitrile] showed a melting point of 137 to 138 °C and an IC50 [3] of 86 nM.

For CCOc1cc2c(Nc3cc(OC)c(Cl)cc3Cl)c(C#N)cnc2cc1OCC1CCN(C)CC1 [Example 10, 4-[(2,4-Dichloro-5-methoxyphenyl)amino]-6-ethoxy-7-[(1-methylpiperidin-4-yl)methoxy]quinoline-3-carbonitrile], the IC50 (Src) was 2.1 nM, the melting point was 182 to 186 °C and the IC50 [3] was 176 nM.

For CCOc1cc2c(Nc3cc(OC)c(Cl)cc3Cl)c(C#N)cnc2cc1OCCCN1CCN(CC)CC1 [Example 11, 4-[(2,4-Dichloro-5-methoxyphenyl)amino]-6-ethoxy-7-[3-(4-ethylpiperazin-1-yl)propoxy]quinoline-3-carbonitrile], the IC50 (Src) was 0.85 nM, the melting point was 127 to 130 °C and the IC50 [3] was 160 nM.

With CCOc1cc2c(Nc3cc(OC)c(Cl)cc3Cl)c(C#N)cnc2cc1OCCCC1CCN(C)CC1 [Example 12, 4-[(2,4-Dichloro-5-methoxyphenyl)amino]-6-ethoxy-7-[3-(1-methylpiperidin-4-yl)propoxy]quinoline-3-carbonitrile] the IC50 (Src) was 1.4 nM, the melting point was 148 to 151 °C and the IC50 [3] was 96 nM.

With CCOc1cc2c(Nc3cc(OC)c(Cl)cc3Cl)c(C#N)cnc2cc1OCCN1CCN(C)CC1 [Example 13, 4-[(2,4-Dichloro-5-methoxyphenyl)amino]-6-ethoxy-7-[2-(4-methyl-1-piperazinyl)ethoxy]quinoline-3-carbonitrile] the IC50 (Src) was 1.5 nM, the melting point was 141 to 143 °C and the IC50 [3] was 146 nM.

For CCOc1cc2c(Nc3cc(OC)c(Cl)cc3Cl)c(C#N)cnc2cc1OCCC1CCN(C)CC1 [Example 14, 4-[(2,4-Dichloro-5-methoxyphenyl)amino]-6-ethoxy-7-[2-(1-methylpiperidin-4-yl)ethoxy]quinoline-3-carbonitrile], the IC50 (Src) was 1.9 nM, the melting point was 174 to 176 °C and the IC50 [3] was 267 nM.

Work on CCCN1CCN(CCCOc2cc3ncc(C#N)c(Nc4cc(OC)c(Cl)cc4Cl)c3cc2OC)CC1 [Example 15, 4-[(2,4-Dichloro-5-methoxyphenyl)amino]-6-methoxy-7-[3-(4-propyl-1-piperazinyl)propoxy]-3-quinolinecarbonitrile] yielded an IC50 [3] of 160 nM.

From patent US20040229880A1, “4-[(2,4-dichloro-5-methoxyphenyl)amino]-6-alkoxy-3-quinolinecarbonitriles for the treatment of ischemic injury” (Wyeth, priority 2003, published 2004)
